According to patent US12673039B2, “Methods of inducing autophagy using coumarin derivatives and related compounds” (Buck Institute for Research on Aging, priority 2019, dated 2026):

Experiments:
SH-SY5Y cells = experiment: Autophagic flux (LC3-II ± bafilomycin A1) in SH-SY5Y cells; assay type: cell-based, human; settings: presence and absence of bafliomycin A1
Procedure: FIG. 23, panels A-H: FXR modulation enhances HLH-30 expression in human neuronal SH-SY5Y cells. Panel A) Effects of AIC106 on human FXR activity was determined in a mammalian one-hybrid based kit assay by quantifying changes in the luciferase activity of FXR ligand (GW4064, GW) induced treatment. [N=3 independent experiments (mean±SD). ****p<0.0001, by one-way ANOVA with Tukey's multiple comparisons test]. Panel B) Protein expression of TFEB, cathepsin-D (CAT-D) and small heterodimer partner-1 (SHP-1) was determined by immunoblot in neuronal SH-SY5Y cells post-24 hours of treatment with AIC106 and DMSO-control. Panel C) AIC106 enhances autophagic flux in neuronal SH-SY5Y cells. Autophagic flux in DMSO-control and AIC106 treated neuronal cells was determined by quantifying levels of autophagosome specific LC3-II protein both in presence and absence of autophagy inhibitor bafliomycin A1 (Baf A, 10 nM). Panel D) Relative fold change in the band intensity of LC3-II protein, normalized to loading control actin. Values are relative to DMSO-control. […] Panel E) Effects of AIC106 treatment for 72 hours on basal TAU and phosphorylated-TAU in differentiated human neuronal SH-SHY5Y and heterozygous TSC1(+/−) mutant SH-SY5Y neuronal cells were quantitated by immunoblotting following total protein extraction. […]

[1] = system: TSC1+/− human neuronal SH-SY5Y cells; experiment: TAU, phosphorylated-TAU, insoluble tau and viability in TSC1 mutant SH-SY5Y neuronal cells; assay type: cell-based
Procedure: FIG. 8 A) Representative Western blot analysis of detergent-insoluble tau levels in control versus three independent TSC1-mutant SY5Y cell lines (A1, A3, A3A9) treated with 10 μM C1 (AIC106) versus vehicle. FIG. 8B) Quantitation of insoluble tau levels in control (Emty) versus mutant TSC1 lines treated with C1 (AIC106) versus vehicle (−). Values represent fold change versus vehicle-treated controls, *p<0.01.
FIG. 23, panels A-H: FXR modulation enhances HLH-30 expression in human neuronal SH-SY5Y cells. Panel A) Effects of AIC106 on human FXR activity was determined in a mammalian one-hybrid based kit assay by quantifying changes in the luciferase activity of FXR ligand (GW4064, GW) induced treatment. [N=3 independent experiments (mean±SD). ****p<0.0001, by one-way ANOVA with Tukey's multiple comparisons test]. Panel B) Protein expression of TFEB, cathepsin-D (CAT-D) and small heterodimer partner-1 (SHP-1) was determined by immunoblot in neuronal SH-SY5Y cells post-24 hours of treatment with AIC106 and DMSO-control. Panel C) AIC106 enhances autophagic flux in neuronal SH-SY5Y cells. Autophagic flux in DMSO-control and AIC106 treated neuronal cells was determined by quantifying levels of autophagosome specific LC3-II protein both in presence and absence of autophagy inhibitor bafliomycin A1 (Baf A, 10 nM). Panel D) Relative fold change in the band intensity of LC3-II protein, normalized to loading control actin. Values are relative to DMSO-control. [N=3 independent experiments (mean±SD). *p<0.05 and ****p<0.0001, by one-way ANOVA with Tukey's multiple comparisons test]. Panel E) Effects of AIC106 treatment for 72 hours on basal TAU and phosphorylated-TAU in differentiated human neuronal SH-SHY5Y and heterozygous TSC1(+/−) mutant SH-SY5Y neuronal cells were quantitated by immunoblotting following total protein extraction. Relative fold change in the band intensity compared to SH-SY5Y control treatment for (panel F) total TAU and (panel G) phosphorylated-TAU, normalized to loading control GAPDH. [N=3 independent experiments (mean±SD). *p<0.05 and **p<0.01, by one-way ANOVA with Sidak's multiple comparisons test]. Panel H) AIC106 treatment improves viability and health of differentiated SH-SY5Y-TSC1(+/−) neuronal cells. Images were taken post-96 hours after treatment of differentiated neuronal cells with AIC106.
The rat dopaminergic cell line 1RB3AN27 (N27) was grown in RPMI 1640 medium supplemented with 10% fetal calf serum (Invitrogen), 100 U/ml penicillin, and 100 μg/ml streptomycin. SH-SY5Y TSC1+/− lines were generated as described previously (Olney et al., 2017). […]

[2] = TSC1+/− SH-SY5Y cells, 72 hours

Structure (SMILES): O=c1oc2c3c4c(cc2c2c1CCC2)CCCN4CCC3 [C1, 2,3,6,7,10,11-Hexahydro-1H,5H-cyclopenta(3,4)(1)benzopyrano(6,7,8-ij)quinolizin-12(9H)-one]
- autophagic flux (LC3 turnover) (SH-SY5Y cells): enhanced autophagic flux
- TAU levels [1, 2]: without significantly changing TAU levels
- phosphorylated-TAU [1, 2]: decrease of phosphorylated-TAU
- insoluble tau levels ([1]; TSC1-mutant SY5Y cell lines, 10 μM C1 (FIG. 8)): reduce levels of insoluble tau levels
- viability and general health of differentiated cells ([1]; differentiated TSC1+/− SH-SY5Y cells, 96 hours): prevented loss in viability
